In brackets after ≈: the same amount, converted by molar mass.
How the values were obtained:
Format in all cases: functional
Mus musculus [1] = experiment: Hepatoprotective activity in CD1 Mus musculus (mouse) assessed as reduction of CCl4-induced serum aspartate aminotransferase level at 20 mg/kg, po administered 30 min before and 3 hr after CCl4 challenge measured 48 hr post CCl4 challenge (reference value: 487.3 +/- 6.21 IU/l)
Mus musculus [2] = experiment: Nephroprotective activity in CD1 Mus musculus (mouse) assessed as reduction of CCl4-induced plasma urea level at 20 mg/kg, po administered 30 min before and 3 hr after CCl4 challenge measured 48 hr post CCl4 challenge (reference value: 61.56 +/- 3.46 mg/dl)
Mus musculus [3] = experiment: Hepatoprotective activity in CD1 Mus musculus (mouse) assessed as reduction of CCl4-induced total cholesterol level in serum at 20 mg/kg, po administered 30 min before and 3 hr after CCl4 challenge measured 48 hr post CCl4 challenge (reference value: 172.57 +/- 4.36 md/dl)
Mus musculus [4] = experiment: Nephroprotective activity in CD1 Mus musculus (mouse) assessed as reduction of CCl4-induced plasma creatinine level at 20 mg/kg, po administered 30 min before and 3 hr after CCl4 challenge measured 48 hr post CCl4 challenge (reference value: 1.2 +/- 0.006 mg/dl)
[5] = Antioxidant activity assessed as superoxide radical scavenging activity
[6] = tested on: Radical scavenging activity; experiment: Antioxidant activity assessed as DPPH free radical scavenging activity
Mus musculus [7] = experiment: Hepatoprotective activity in CD1 Mus musculus (mouse) assessed as reduction of CCl4-induced serum alanine aminotransferase level at 20 mg/kg, po administered 30 min before and 3 hr after CCl4 challenge measured 48 hr post CCl4 challenge (reference value: 296 +/- 7.93 IU/l)
Mus musculus [8] = experiment: Hepatoprotective activity in CD1 Mus musculus (mouse) intoxicated with CCl4 assessed as increase in total protein level in serum at 20 mg/kg, po administered 30 min before and 3 hr after CCl4 challenge measured 48 hr post CCl4 challenge (reference value: 61.80 +/- 5.48 g/l)
[9] = Antioxidant activity assessed as inhibition of H2O2/Fe2+-induced radical generation
Mus musculus [10] = experiment: Hepatoprotective activity in CD1 Mus musculus (mouse) assessed as reduction of CCl4-induced serum alkaline phosphatase level at 20 mg/kg, po administered 30 min before and 3 hr after CCl4 challenge measured 48 hr post CCl4 challenge (reference value: 239.1 +/- 5.98 IU/l)

Row | Structure (SMILES) | IC50 [5] [µg/mL] | IC50 [6] [µg/mL] | IC50 [9] [µg/mL] | Activity (Mus musculus [1]) [IU/L] | Activity (Mus musculus [2]) [mg/dL] | Activity (Mus musculus [3]) [mg/dL] | Activity (Mus musculus [4]) [mg/dL] | Activity (Mus musculus [7]) [IU/L] | Activity (Mus musculus [8]) [g/L] | Activity (Mus musculus [10]) [IU/L]
1 | C[C@H]1O[C@@H](Oc2cc(O)c3c(c2)O[C@H](c2cc(O)c(O)c(O)c2)CC3=O)[C@@H](O)[C@@H](O)[C@@H]1O | 25.8 (≈ 57.3 µM) | 9.3 (≈ 20.6 µM) | 18.2 (≈ 40.4 µM) | 145.7 | 51.1 | 124.34 | 0.76 | 103.4 | 76.1 | 118.1
2 | COc1ccc([C@@H]2CC(=O)c3c(OC)cc(O[C@@H]4O[C@H](C)[C@@H](O)[C@H](O)[C@@H]4O)cc3O2)cc1O | 39.76 (≈ 86 µM) | 21.4 (≈ 46.3 µM) | 32.7 (≈ 70.7 µM) | 200.6 | 46.62 | 140.13 | 0.69 | 143.6 | 70.24 | 149.6
3 | COc1cc(O)cc2c1C(=O)[C@H](O[C@@H]1O[C@H](C)[C@@H](O)[C@H](O)[C@@H]1O)[C@@H](c1cc(O)c(OC)c(O)c1)O2 | 35.2 (≈ 71.2 µM) | 11.6 (≈ 23.5 µM) | 26.7 (≈ 54 µM) | 189.4 | 47.26 | 136.8 | 0.71 | 124.2 | 71.57 | 137.5
4 | O=c1c(O)c(-c2ccc(O)c(O)c2)oc2cc(O)cc(O)c12 [QUERCETIN] | 20.1 (≈ 66.5 µM) | 8.2 (≈ 27.1 µM) | 14.6 (≈ 48.3 µM) |  |  |  |  |  |  | 

Second part, led by results:

Row | IC50 [5] [µg/mL] | IC50 [6] [µg/mL] | IC50 [9] [µg/mL] | Structure (SMILES) | Activity (Mus musculus [1]) [IU/L] | Activity (Mus musculus [2]) [mg/dL] | Activity (Mus musculus [3]) [mg/dL] | Activity (Mus musculus [4]) [mg/dL] | Activity (Mus musculus [7]) [IU/L] | Activity (Mus musculus [8]) [g/L] | Activity (Mus musculus [10]) [IU/L]
5 | 43.12 (≈ 66.1 µM) | 24.8 (≈ 38 µM) | 36.42 (≈ 55.8 µM) | COc1ccc(-c2oc3cc(O[C@@H]4O[C@H](CO)[C@@H](O)[C@H](O[C@@H]5O[C@@H](C)[C@H](O)[C@@H](O)[C@H]5O)[C@H]4O)c(OC)c(O)c3c(=O)c2OC)cc1 | 219.4 | 44.78 | 143.28 | 0.67 | 152.4 | 68.23 | 156.5
6 | 30.4 (≈ 48.5 µM) | 17.5 (≈ 27.9 µM) | 22.4 (≈ 35.8 µM) | COc1c(O)cc([C@H]2Oc3cc(O)cc(O)c3C(=O)[C@@H]2O[C@@H]2O[C@H](C)[C@@H](O)[C@H](O)[C@@H]2O[C@@H]2O[C@H](C)[C@@H](O)[C@H](O)[C@@H]2O)cc1O | 161.6 | 49.43 | 129.31 | 0.74 | 115.1 | 74.76 | 128.3
